# Reference: US20220119354A1, “DIAMINO-SUBSTITUTED PYRIDINES AND PYRIMIDINES AS HERBICIDES” (FMC Corporation, priority 2019, published 2022)
# Legend:
# Format in all cases: in vivo
# [1] = tested on: ducksalad (Heteranthera limosa); assay: Test B flooded paddy test, ducksalad; settings: Flood, 250 g ai/ha, applied to paddy water, 2-leaf stage, visual evaluation after 13 to 15 d
# Summary of the method: (§1)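 Each response is a visual 0–100 rating made against untreated controls, where 0 is no effect and 100 is complete control; a dash marks no result. Compound was dosed into 3 cm paddy water over 2-leaf plants, assessed after 13 to 15 d.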
# [2] = tested on: galium (catchweed bedstraw, Galium aparine); assay: Test A postemergence, galium; settings: 0 to 100 scale, 0 no effect, 100 complete control
# Summary of the method: (§2)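 Pots of loam–sand mix; preemergence directed soil spray at sowing, postemergence spray at one- to two-leaf stage. Readout: visual injury vs untreated controls, ~10 d, 0–100 scale.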
# [3] = tested on: ryegrass, Italian (Lolium multiflorum); assay: Test A preemergence, Italian ryegrass; settings: 0 to 100 scale, 0 is no effect, 100 is complete control
# Summary of the method: as §2
# corn (Zea mays) = assay: Test A postemergence, corn; settings: 0 to 100 scale, 0 no effect, 100 complete control
# Summary of the method: as §2
# [4] = tested on: ragweed (common ragweed, Ambrosia elatior); assay: Test A preemergence, ragweed; settings: 0 to 100 scale, 0 is no effect, 100 is complete control
# Summary of the method: as §2
# rice (Oryza sativa) = assay: Test B flooded paddy test, rice; settings: Flood, 250 g ai/ha, applied to paddy water, 2-leaf stage, visual evaluation after 13 to 15 d
# Summary of the method: as §1
# kochia (Kochia scoparia) [5] = assay: Test A preemergence, kochia; settings: 0 to 100 scale, 0 is no effect, 100 is complete control
# Summary of the method: as §2
# [6] = tested on: wheat (Triticum aestivum); assay: Test A postemergence, wheat; settings: 0 to 100 scale, 0 no effect, 100 complete control
# Summary of the method: as §2
# [7] = tested on: barnyardgrass (Echinochloa crus-galli); assay: Test A postemergence, barnyardgrass; settings: 0 to 100 scale, 0 no effect, 100 complete control
# Summary of the method: as §2
# [8] = tested on: foxtail, giant (Setaria faberii); assay: Test A preemergence, giant foxtail; settings: 0 to 100 scale, 0 is no effect, 100 is complete control
# Summary of the method: as §2
# kochia (Kochia scoparia) [9] = assay: Test A postemergence, kochia; settings: 0 to 100 scale, 0 no effect, 100 complete control
# Summary of the method: as §2
# [10] = tested on: sedge, umbrella (small-flower umbrella sedge, Cyperus difformis); assay: Test B flooded paddy test, umbrella sedge; settings: Flood, 250 g ai/ha, applied to paddy water, 2-leaf stage, visual evaluation after 13 to 15 d
# Summary of the method: as §1
# [11] = tested on: barnyardgrass (Echinochloa crus-galli); assay: Test A preemergence, barnyardgrass; settings: 0 to 100 scale, 0 is no effect, 100 is complete control
# Summary of the method: as §2
# [12] = tested on: blackgrass (Alopecurus myosuroides); assay: Test A postemergence, blackgrass; settings: 0 to 100 scale, 0 no effect, 100 complete control
# Summary of the method: as §2
# [13] = tested on: barnyardgrass (Echinochloa crus-galli); assay: Test B flooded paddy test, barnyardgrass; settings: Flood, 250 g ai/ha, applied to paddy water, 2-leaf stage, visual evaluation after 13 to 15 d
# Summary of the method: as §1
# [14] = tested on: pigweed (Amaranthus retroflexus); assay: Test A postemergence, pigweed; settings: 0 to 100 scale, 0 no effect, 100 complete control
# Summary of the method: as §2
# [15] = tested on: pigweed (Amaranthus retroflexus); assay: Test A preemergence, pigweed; settings: 0 to 100 scale, 0 is no effect, 100 is complete control
# Summary of the method: as §2
# [16] = tested on: ragweed (common ragweed, Ambrosia elatior); assay: Test A postemergence, ragweed; settings: 0 to 100 scale, 0 no effect, 100 complete control
# Summary of the method: as §2
# [17] = tested on: foxtail, giant (Setaria faberii); assay: Test A postemergence, giant foxtail; settings: 0 to 100 scale, 0 no effect, 100 complete control
# Summary of the method: as §2
# [18] = tested on: ryegrass, Italian (Lolium multiflorum); assay: Test A postemergence, Italian ryegrass; settings: 0 to 100 scale, 0 no effect, 100 complete control
# Summary of the method: as §2
structure (smiles),measurement,setting,value
C[C@@H](Nc1nc(N)c(C(F)(F)F)c(C(F)F)n1)c1cc2ccccc2s1 [Compound 109],"Plant response rating, Ducksalad (0 to 100 scale, 0 is no effect, 100 is complete control)",[1],65
same,"Plant response rating, Galium",[2]; 31 g ai/ha,40
same,"Plant response rating, Galium",[2]; 125 g ai/ha,70
same,"Ryegrass, Italian plant response rating",[3]; 31 g ai/ha,20
same,"Ryegrass, Italian plant response rating",[3]; 125 g ai/ha,40
same,"Plant response rating, Corn",corn (Zea mays); 31 g ai/ha,0
same,"Plant response rating, Corn",corn (Zea mays); 125 g ai/ha,0
same,Ragweed plant response rating,[4]; 31 g ai/ha,30
same,Ragweed plant response rating,[4]; 125 g ai/ha,90
same,"Plant response rating, Rice (0 to 100 scale, 0 is no effect, 100 is complete control)",rice (Oryza sativa),20
same,Kochia plant response rating,kochia (Kochia scoparia) [5]; 31 g ai/ha,80
same,Kochia plant response rating,kochia (Kochia scoparia) [5]; 125 g ai/ha,90
same,"Plant response rating, Wheat",[6]; 31 g ai/ha,0
same,"Plant response rating, Wheat",[6]; 125 g ai/ha,0
same,"Plant response rating, Barnyardgrass",[7]; 31 g ai/ha,0
same,"Plant response rating, Barnyardgrass",[7]; 125 g ai/ha,0
same,"Foxtail, Giant plant response rating",[8]; 31 g ai/ha,0
same,"Foxtail, Giant plant response rating",[8]; 125 g ai/ha,30
same,"Plant response rating, Kochia",kochia (Kochia scoparia) [9]; 31 g ai/ha,50
same,"Plant response rating, Kochia",kochia (Kochia scoparia) [9]; 125 g ai/ha,70
same,"Plant response rating, Sedge, Umbrella (0 to 100 scale, 0 is no effect, 100 is complete control)",[10],75
same,Barnyardgrass plant response rating,[11]; 31 g ai/ha,0
same,Barnyardgrass plant response rating,[11]; 125 g ai/ha,0
same,"Plant response rating, Blackgrass",[12]; 31 g ai/ha,10
same,"Plant response rating, Blackgrass",[12]; 125 g ai/ha,10
same,"Plant response rating, Barnyardgrass (0 to 100 scale, 0 is no effect, 100 is complete control)",[13],35
same,"Plant response rating, Pigweed",[14]; 31 g ai/ha,80
same,"Plant response rating, Pigweed",[14]; 125 g ai/ha,90
same,Pigweed plant response rating,[15]; 31 g ai/ha,70
same,Pigweed plant response rating,[15]; 125 g ai/ha,90
same,"Plant response rating, Ragweed",[16]; 31 g ai/ha,50
same,"Plant response rating, Ragweed",[16]; 125 g ai/ha,60
same,"Plant response rating, Foxtail, Giant",[17]; 31 g ai/ha,0
same,"Plant response rating, Foxtail, Giant",[17]; 125 g ai/ha,20
same,"Plant response rating, Ryegrass, Italian",[18]; 31 g ai/ha,0
same,"Plant response rating, Ryegrass, Italian",[18]; 125 g ai/ha,0
